Experiments:
[1] = Solution phase ethylene polymerization, semi-batch reactor (SBR)
Method: (§1) All the solution polymerization experiments described below were conducted using an Autoclave Engineers Zipperclave reactor (500 mL). All the chemicals (solvent, catalyst and cocatalyst) were fed into the reactor batchwise except ethylene which was fed on demand. No product was removed during the polymerization reaction. As are known to those skilled in the art, all the feed streams were purified prior to feeding into the reactor by contact with various absorption media to remove catalysts killing impurities such as water, oxygen, sulfur and polar materials. All components were stored and manipulated under an atmosphere of purified argon or nitrogen. The reactor uses a programmable logical control (PLC) system with Wonderware 5.1 s, oftware for the process control. Ethylene polymerizations were performed in the reactor equipped with an air driven stirrer and an automatic temperature control system.
The catalyst was dissolved in toluene. The polymerization reaction time is typically 10 minutes. The reaction was terminated by adding 5 mL of methanol to the reactor and the polymer was recovered by evaporation of the solvent. The polymerization activities were calculated based on the ethylene consumption.
Examples 1-18 were conducted on a solution semi-batch reactor (SBR).
SBR Experimental Conditions with MAO Activation
Catalyst Concentration 200 μmol/L
PMAO-IP Al/Zr = 300 (mol/mol)
Reaction Temperature 160° C.
Reactor Pressure 140 psig total
Stirring Speed 2000 rpm
SBR Experirimental Conditions with Trinitylborate Activation
PMAO-IP 1 mmol/L as impurity scavenger
^a SBR standard MAO screening conditions.
^b Insitu alkylation: PMAOIP (Al/M = 20) premixed with catalyst, the
mixture and tritylborate solution were injected into the reactor
^c SBR standard trityl borate screening conditions.
^d Premix catalyst and cocatalyst.
^e Zr(Bz)4 as scavenger at 1.2 mmol/L. […]

[2] = Gas phase polymerization, supported catalyst, semi-batch gas phase reactor; conditions: 200 psig, 90° C., 60 minutes; for Yield PE: 50-54 mg supported catalyst
Description: The catalyst preparation methods described below employ typical techniques for the syntheses and handling of air-sensitive materials. Standard Schlenk and drybox techniques were used in the preparation of ligands, metal complexes, support substrates and supported catalyst systems. Solvents were purchased as anhydrous materials and further treated to remove oxygen and polar impurities by contact with a combination of activated alumina, molecular sieves and copper oxide on silica/alumina. Where appropriate, elemental compositions of the supported catalysts were measured by Neutron Activation analysis and a reported accuracy of ±1% (weight basis).
The supported catalysts were prepared by initially supporting MAO on a silica support, followed by deposition of the catalyst component.
(§2) All the polymerization experiments described below were conducted using a semi-batch, gas phase polymerization reactor of total internal volume of 2.2 L. Reaction gas mixtures, including ethylene were measured to the reactor on a continuous basis using a calibrated thermal mass flow meter, following passage through purification media as described above. A pre-determined mass of the catalyst sample was added to the reactor under the flow of the inlet gas with no pre-contact of the catalyst with any reagent, such as a catalyst activator. The catalyst was activated in situ (in the polymerization reactor) at the reaction temperature in the presence of the monomer, using a metal alkyl complex which has been previously added to the reactor to remove adventitious impurities. Purified and rigorously anhydrous sodium chloride was used as a catalyst dispersing agent.
The internal reactor temperature is monitored by a thermocouple in the polymerization medium and can be controlled at the required set point to +/-1.0° C. The duration of the polymerization experiment was one hour. Following the completion of the polymerization experiment, the polymer was separated from the sodium chloride and the yield determined. The following table illustrates bench scale gas phase reaction conditions.
Solvent 5-10 mL hexane added with catalyst
Operating Mode Gas Phase
(§3) Aluminum alkyl 25-30 wt. % triisobutyl aluminum
(§4) Reaction Pressure 200 psig
(§5) Reaction Temperature 90° C.
(§6) Reaction Time 60 minutes
Examples 19-22 are examples of the gas phase polymerization. The next table illustrates data concerning the Al/transition metal ratios of the supported catalyst, polymer yield and polymer properties.

[3] = Low temperature and pressure slurry polymerization on catalyst screening unit (CSU); conditions: 10 psig
Method: Low pressure and temperature slurry polymerization experiments were conducted on a catalyst screening unit (CSU) where polymerization occurs in a cyclohexane reaction media, ethylene is fed to the reactor on demand and is monitored by a mass flow meter. On the CSU, reaction temperatures are monitored and controlled by thermocouples and one RTD. Reactor temperature control is maintained by a HAAKE circulating water bath which has external thermostatic control via the thermocouple at the reactor core. Reactor temperature is maintained by the water from the bath entering the jacket-like coolant chamber surrounding the reactor. Reaction pressures are indicated by mechanical pressure gauges and monitored manually.
The CSU shares the purified ethylene and cyclohexane feeds with the solution semi-batch reactor (SBR). Ultra-High-Purity argon from PRAXAIR which is purified further by 13× and OXICLEAR on a separate gas purification unit is used for reactor system purging and solvent sparging. The polymerization products are quantitatively recovered for mass determination, and polymerization activities are then calculated based upon mass of product, millimoles of catalyst injected and reaction time.
Examples 25-32 were conducted on a catalyst screening unit (CSU).
Catalyst Concentration 50 μmol/L (Zr)
Catalyst Mole Ratio Al/Zr = 500/1
Polymethylaluminoxane (PMAO-IP)
Reaction Temperature Setpoint 35° C.
Reactor Pressure Setpoint 10 psig total
Stirring Speed ~2250 +/- 300 rpm Initially
Catalyst Concentration 50 μmol/L (M)
Catalyst Mole Ratio Al/B/M = 20/1.05/1
Modified Methylaluminoxane (MMAO-

[4] = Solution phase copolymerization of ethylene with 1-octene, semi-batch reactor (SBR); conditions: [CPh3 ][B(C6 F5)4 ]; copolymerization with 20 mL of 1-octene; based on polymer weight
Method: Polymer molecular weights and molecular weight distributions were measured by GPC (Waters 150-C) at 140° C. in 1,2,4-trichlorobenzene calibrated using polyethylene standards.
as §1
The catalyst was dissolved in toluene. The polymerization reaction time is typically 10 minutes. […] The polymerization activities were calculated based on the ethylene consumption. […]
were calculated based on polymer weight. 20.7 Br/1000 C detected by NMR […]

[5] = High temperature and pressure slurry polymerization, supported catalyst; conditions: slurry in hexane, 200 psig, 90° C., 60 minutes
Method: The supported catalyst described in Part B was also used for the slurry polymerization tests.
as §2, with “a semi-batch” for “a semi-batch, gas phase polymerization”, “sample as” for “sample was”, “complex and solvent” for “complex”, “which have” for “which has”, “impurities.” for “impurities. Purified and rigorously anhydrous sodium chloride was used as a catalyst dispersing agent.”
The internal reactor temperature is monitored by a thermocouple in the polymerization medium and can be controlled at the required set point to +/-1.0° C. The duration of the polymerization experiment was one hour. Following the completion of the polymerization experiment, the slurry was transferred from the reactor to a bowl, and the solvent was left to evaporate. The following table illustrates bench scale slurry phase reaction conditions.
Operating Mode Slurry Phase
as §3, §4, §5, §6
Examples 23-24 are high pressure and temperature slurry polymerization examples. The next table illustrates data concerning the Al/transition metal ratios of the supported catalyst; polymer yield and polymer properties.

[6] = SBR standard MAO screening: PMAO-IP, Al/Zr = 300, 160° C., 140 psig
[7] = [CPh3 ][B(C6 F5)4 ], in situ alkylation, PMAO-IP (Al/M = 20) premixed with catalyst, 160° C.
[8] = SBR standard trityl borate screening: [CPh3 ][B(C6 F5)4 ], 160° C., 140 psig
[9] = MMAO-7/[CPh3 ][B(C6 F5)4 ], Al/B/M = 20/1.05/1, 35° C.

| Molecule | Activity [1, 6] [gPE/mmol cat*hr] | Yield per catalyst [2] [gPE/g Catalyst] | Yield per metal [2] [gPE/g Metal] | Yield PE [2] [g] | Activity ([3]; PMAO-IP, Al/Zr = 500/1, 35° C.) [gPE/mmol cat*hr] | Activity [1, 8] [gPE/mmol cat*hr] | other results |
| --- | --- | --- | --- | --- | --- | --- | --- |
| [ZrCl2 {(C(O)(NAd))C(Ph2 P=NSiMe3)2 }] [KB-103] | 129.0 | 8 | 1607 | 0.4 | 0 |  | Activity [1, 7]: 498.7 gPE/mmol cat*hr |
| [Cl][Zr+2][Cl].c1cc[cH-]c1.c1cc[cH-]c1 [Cp2 ZrCl2, reference compound] | 1339.9 |  |  |  | 2692 |  |  |
| [ZrCl2 {C(Cy2 =NSiMe3)2 }] [Zr-3C] | 22.7 |  |  |  | 0 |  | Activity [1, 7]: 70.6 gPE/mmol cat*hr |
| [Zr{C(Ph2 P=NSimMe3)2 }(CH2 C6 H5)2 ] [Zr-6D] |  |  |  |  | 13 | 11.6 | Activity ([1]; [CPh3 ][B(C6 F5)4 ], Zr(Bz)4 as scavenger at 1.2 mmol/L, 160° C.): 14.4 gPE/mmol cat*hr; Activity ([1]; [CPh3 ][B(C6 F5)4 ], premix catalyst and cocatalyst, 160° C.): 42.7 gPE/mmol cat*hr; Activity ([1]; cocatalyst B(C6 F5)3, footnote c standard trityl borate screening conditions, 160° C.): 9.12 gPE/mmol cat*hr; Activity [4]: 10.5 gPE/mmol cat*hr |
| [ZnMe{HC(Ph2 P=NSiMe3)2 }] [AK-17] |  | 0 | 0 | 0 |  | 89.78 | Activity [3, 9]: 4 gPE/mmol cat*hr |
| [ZrMe2 {C(Cy2 =NSiMe3)2 }] [Zr-3C-Me2] |  |  |  |  |  | 56.8 | Activity [4]: 8.22 gPE/mmol cat*hr; Activity [3, 9]: 29 gPE/mmol cat*hr |
| [ZrCl2 {C(Ph2 P=NSiMe3)2 }] [Zr-3D] | 14.2 | 0 | 0 | 0 | 1 |  | Yield per catalyst [5]: 4 gPE/g Catalyst; Yield per metal [5]: 915 gPE/g Metal; Yield PE ([5]; 122-137 mg supported catalyst): 0.6 g |

Reference: patent US6060568A, “Carbene transition metal catalysts” (The Governors of the University of Alberta, priority 1999, dated 2000)
